Results: ChEMBL document CHEMBL4602695, “Discovery and SARs of 5-Chloro-N4-phenyl-N2-(pyridin-2-yl)pyrimidine-2,4-diamine Derivatives as Oral Available and Dual CDK 6 and 9 Inhibitors with Potent Antitumor Activity” (J Med Chem, 2020)
Active and inactive are the calls of the source. The calls are words filed in the database; no cut-off is given here.

What was measured:
[1] = target: Cyclin-dependent kinase 9 (Homo sapiens) (UniProt P50750); assay: Inhibition of CDK9 in human MDA-MB-231 cells assessed as down regulation of p-Pol II CTD S2 expression at 4 to 12 uM measured after 48 hrs by Western blot analysis; format: cell-based
MDA-MB-231 [2] = assay: Effect on CDK6 expression in human MDA-MB-231 cells at 4 to 12 uM measured after 48 hrs by Western blot analysis; format: functional, cell-based
MDA-MB-231 [3] = assay: Induction of apoptosis in human MDA-MB-231 cells xenografted in BALB/c nu/nu mouse assessed as increase in nucleoplasm staining at 22.5 to 90 mg/kg, po administered once daily for 3 weeks measured post-last dose by H and E staining based histopathological analysis; format: functional, organism-based
[4] = target: Cyclin-dependent kinase 6 (Homo sapiens) (UniProt Q00534); assay: Inhibition of CDK6 in human MDA-MB-231 cells assessed as down regulation of E2F1 expression at 4 to 12 uM measured after 48 hrs by Western blot analysis; format: cell-based
MDA-MB-231 [5] = assay: Induction of intracellular reactive oxygen species production in human MDA-MB-231 cells measured after 48 hrs by DCFH-DA probe based flow cytometry; format: functional, cell-based
MDA-MB-231 [6] = assay: Induction of apoptosis in human MDA-MB-231 cells xenografted in BALB/c nu/nu mouse assessed as increase in cytoplasm shrinkage at 22.5 to 90 mg/kg, po administered once daily for 3 weeks measured post-last dose by H and E staining based histopathological analysis; format: functional, organism-based
[7] = target: Cyclin-dependent kinase 9 (Homo sapiens) (UniProt P50750); assay: Inhibition of CDK9 in human MDA-MB-231 cells assessed as reduction in Mcl-1 mRNA level at 4 to 12 uM by trizol reagent based qRT-PCR analysis; format: cell-based
MDA-MB-231 [8] = assay: Induction of apoptosis in human MDA-MB-231 cells xenografted in BALB/c nu/nu mouse assessed as increase in intracellular space at 22.5 to 90 mg/kg, po administered once daily for 3 weeks measured post-last dose by H and E staining based histopathological analysis; format: functional, organism-based
[9] = target: Cyclin-dependent kinase 6 (Homo sapiens) (UniProt Q00534); assay: Inhibition of CDK6 in human MDA-MB-231 cells assessed as down regulation of p-Rb expression at 4 to 12 uM measured after 48 hrs by Western blot analysis; format: cell-based
[10] = target: CDK3/Cyclin E (Homo sapiens) (UniProt P24864+Q00526); details: Sf9, 1 uM
[11] = target: Cyclin-dependent kinase 9 (Homo sapiens) (UniProt P50750); assay: Inhibition of CDK9 in human MDA-MB-231 cells assessed as reduction in c-Myc mRNA level at 4 to 12 uM by trizol reagent based qRT-PCR analysis; format: cell-based
[12] = target: CDK9/cyclin T1 (Homo sapiens) (UniProt O60563+P50750); assay: Binding affinity to recombinant His-tagged CDK9/cyclin T1 (unknown origin) expressed in HEK293T cells assessed as thermal stabilization of protein at 10 uM measured for 3 mins at 57 degC by CETSA; format: cell-based; details: HEK-293T
[13] = target: Cyclin-dependent kinase 9 (Homo sapiens) (UniProt P50750); assay: Inhibition of CDK9 in human MDA-MB-231 cells assessed as down regulation of cyclin T1 expression at 4 to 12 uM measured after 48 hrs by Western blot analysis; format: cell-based
[14] = target: T1, CDK6/cyclin D3 (Homo sapiens) (UniProt P30281+Q00534); assay: Binding affinity to recombinant His-tagged CDK6/cyclin D3 (unknown origin) expressed in HEK293T cells assessed as thermal stabilization of protein at 10 uM measured for 3 mins at 57 degC by CETSA; format: cell-based; details: HEK-293T
MDA-MB-231 [15] = assay: Effect on CDK9 expression in human MDA-MB-231 cells at 4 to 12 uM measured after 48 hrs by Western blot analysis; format: functional, cell-based
MDA-MB-231 [16] = assay: Antitumor activity against human MDA-MB-231 cells xenografted in po dosed BALB/c nu/nu mouse assessed as tumor growth inhibition administered once daily for 3 weeks and measured at 3 days interval during compound dosing; format: functional, organism-based
[17] = target: Cyclin-C/Cyclin-dependent kinase 19 (Homo sapiens) (UniProt Q9BWU1+P24863); assay: Inhibition of recombinant human GST-tagged/His-tagged CDK11 (1 to 502 residues)/cyclinC (1 to 283 residues) expressed in insect cells at 1 uM using PAK1 (148 to 210 residues) as substrate measured after 10 to 60 mins by ADP-glo assay relative to control
[18] = target: CDK9/Cyclin K (Homo sapiens) (UniProt P50750+O75909); details: Sf9
MCF7 = assay: Antiproliferative activity against human MCF7 cells assessed as inhibition of cell proliferation measured after 48 hrs by CCK8 assay; format: functional, cell-based; details: for GI50: MCF7, 48 h
MDA-MB-231 [19] = assay: Antiproliferative activity against human MDA-MB-231 cells assessed as inhibition of cell proliferation measured after 48 hrs by CCK8 assay; format: functional, cell-based; details: for GI50: MDA-MB-231, 48 h
Jurkat = assay: Antiproliferative activity against human Jurkat cells assessed as inhibition of cell proliferation measured after 48 hrs by CCK8 assay; format: functional, cell-based
MDA-MB-231 [20] = assay: Antitumor activity against human MDA-MB-231 cells xenografted in BALB/c nu/nu mouse assessed as tumor growth inhibition at 45 mg/kg, po administered once daily for 3 weeks and measured at 3 days interval during compound dosing; format: functional, organism-based
CDK2/Cyclin A2 = CDK2/Cyclin A2 (Homo sapiens, UniProt P24941); design: species or system Sf9
CDK9/Cyclin K = CDK9/Cyclin K (Homo sapiens, UniProt P50750); assay: biochemical
[21] = Cytotoxicity against human L02 cells assessed as inhibition of cell proliferation measured after 48 hrs by CCK8 assay; format: cell-based
CDK6/cyclin D3 = CDK6/cyclin D3 (Homo sapiens, UniProt Q00534); design: species or system Sf9
[22] = target: T1, CDK6/cyclin D3 (Homo sapiens); details: Sf9

Cyclin-dependent kinase 9 (Homo sapiens), sequence (P50750 whole entry): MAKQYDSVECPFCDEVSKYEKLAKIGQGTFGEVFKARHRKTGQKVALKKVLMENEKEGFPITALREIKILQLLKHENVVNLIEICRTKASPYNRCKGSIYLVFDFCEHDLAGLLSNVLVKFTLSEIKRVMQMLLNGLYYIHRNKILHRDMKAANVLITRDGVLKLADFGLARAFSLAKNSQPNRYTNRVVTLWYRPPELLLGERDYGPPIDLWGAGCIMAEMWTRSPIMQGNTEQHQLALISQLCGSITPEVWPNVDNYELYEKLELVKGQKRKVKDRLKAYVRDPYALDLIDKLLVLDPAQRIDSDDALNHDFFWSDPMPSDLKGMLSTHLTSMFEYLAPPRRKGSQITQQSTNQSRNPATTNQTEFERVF
CDK9/Cyclin K, sequence (P50750 whole entry): as above
CDK9/Cyclin K, sequence (O75909 whole entry, further chain): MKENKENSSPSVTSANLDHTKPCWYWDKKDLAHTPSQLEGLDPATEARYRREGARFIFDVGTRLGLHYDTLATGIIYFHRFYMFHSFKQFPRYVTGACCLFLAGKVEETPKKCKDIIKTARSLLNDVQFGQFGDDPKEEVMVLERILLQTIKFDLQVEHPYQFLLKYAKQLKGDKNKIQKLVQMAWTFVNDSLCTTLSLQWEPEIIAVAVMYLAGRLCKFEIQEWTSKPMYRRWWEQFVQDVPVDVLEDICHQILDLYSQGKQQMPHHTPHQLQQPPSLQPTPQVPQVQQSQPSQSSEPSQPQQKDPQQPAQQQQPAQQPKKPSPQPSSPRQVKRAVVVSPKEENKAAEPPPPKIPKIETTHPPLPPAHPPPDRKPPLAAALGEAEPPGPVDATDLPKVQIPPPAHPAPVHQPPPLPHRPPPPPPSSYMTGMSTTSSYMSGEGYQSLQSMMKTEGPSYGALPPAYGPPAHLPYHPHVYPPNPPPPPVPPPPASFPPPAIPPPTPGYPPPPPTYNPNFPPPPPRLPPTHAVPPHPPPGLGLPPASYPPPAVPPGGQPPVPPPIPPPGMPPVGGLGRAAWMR
CDK6/cyclin D3, sequence (P30281 whole entry): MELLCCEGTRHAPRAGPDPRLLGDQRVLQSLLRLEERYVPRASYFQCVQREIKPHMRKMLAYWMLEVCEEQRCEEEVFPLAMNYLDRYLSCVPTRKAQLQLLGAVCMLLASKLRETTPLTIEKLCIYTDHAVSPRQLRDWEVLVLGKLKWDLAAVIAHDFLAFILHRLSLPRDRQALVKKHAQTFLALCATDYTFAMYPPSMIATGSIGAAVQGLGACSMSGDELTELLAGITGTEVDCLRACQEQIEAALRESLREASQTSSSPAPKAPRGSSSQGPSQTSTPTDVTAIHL
CDK6/cyclin D3, sequence (Q00534 whole entry): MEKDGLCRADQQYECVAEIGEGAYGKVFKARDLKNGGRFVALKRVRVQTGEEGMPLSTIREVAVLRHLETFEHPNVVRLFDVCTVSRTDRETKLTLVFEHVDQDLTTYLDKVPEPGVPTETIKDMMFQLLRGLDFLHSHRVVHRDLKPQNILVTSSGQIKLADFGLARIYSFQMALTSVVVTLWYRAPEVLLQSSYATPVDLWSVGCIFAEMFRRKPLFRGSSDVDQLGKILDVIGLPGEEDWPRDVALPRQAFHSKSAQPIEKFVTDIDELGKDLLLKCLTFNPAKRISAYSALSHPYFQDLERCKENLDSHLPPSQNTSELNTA
Cyclin-dependent kinase 6 (Homo sapiens), sequence (Q00534 whole entry): as above
CDK3/Cyclin E (Homo sapiens), sequence (P24864 whole entry, looked up): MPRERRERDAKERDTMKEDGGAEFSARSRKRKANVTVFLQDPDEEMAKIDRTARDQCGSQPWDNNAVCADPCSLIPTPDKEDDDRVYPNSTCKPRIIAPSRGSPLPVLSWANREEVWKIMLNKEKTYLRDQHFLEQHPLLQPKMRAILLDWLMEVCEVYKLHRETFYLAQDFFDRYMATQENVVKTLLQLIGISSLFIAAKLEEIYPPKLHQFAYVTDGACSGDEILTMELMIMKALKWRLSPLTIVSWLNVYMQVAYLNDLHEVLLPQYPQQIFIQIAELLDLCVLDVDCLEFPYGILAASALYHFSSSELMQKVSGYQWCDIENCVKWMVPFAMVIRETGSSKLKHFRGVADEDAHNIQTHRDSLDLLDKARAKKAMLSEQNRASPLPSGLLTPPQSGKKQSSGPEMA
CDK3/Cyclin E (Homo sapiens), sequence (Q00526 whole entry, looked up): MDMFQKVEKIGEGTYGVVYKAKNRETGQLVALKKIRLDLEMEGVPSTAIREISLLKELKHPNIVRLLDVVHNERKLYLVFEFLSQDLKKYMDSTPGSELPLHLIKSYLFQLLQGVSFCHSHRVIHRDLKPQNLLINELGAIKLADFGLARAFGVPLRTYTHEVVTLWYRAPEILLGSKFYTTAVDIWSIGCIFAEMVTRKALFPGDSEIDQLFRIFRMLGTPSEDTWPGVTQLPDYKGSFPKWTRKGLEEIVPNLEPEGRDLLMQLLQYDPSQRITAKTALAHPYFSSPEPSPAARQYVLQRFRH

SMILES	inhibition [18]	GI50 (MCF7)	GI50 (MDA-MB-231 [19])	GI50 (Jurkat)	IC50 (CDK2/Cyclin A2)	IC50 (CDK9/Cyclin K)	GI50 at 48 h [21]	IC50 (CDK6/cyclin D3)	further results
CC(=O)Nc1cccc(Nc2nc(Nc3ccc(N4CCN(C)CC4)cn3)ncc2Cl)c1									inhibition [1]: Active; Activity (MDA-MB-231 [2]): inactive; Activity (MDA-MB-231 [3]): Active; inhibition [4]: Active; Activity (MDA-MB-231 [5]): Dose-dependent effect; Activity (MDA-MB-231 [6]): Active; inhibition [7]: Active; Activity (MDA-MB-231 [8]): Active; inhibition [9]: Active; inhibition [10]: < 6.6%; inhibition [11]: Active; Activity [12]: Active; inhibition [13]: Active; Activity [14]: Active; Activity (MDA-MB-231 [15]): inactive; TGI (MDA-MB-231 [16]): Dose-dependent effect; inhibition [17]: < 6.6%
CN1CCN(c2ccc(Nc3ncc(Cl)c(Nc4ccc(F)c(C(F)(F)F)c4)n3)nc2)CC1	inactive								
CN1CCN(c2ccc(Nc3ncc(Cl)c(Nc4cccc(OC(F)(F)F)c4)n3)nc2)CC1	inactive								
CN1CCN(c2ccc(Nc3ncc(Cl)c(Nc4ccc(F)cc4)n3)nc2)CC1	inactive								
CCN1CCN(Cc2ccc(Nc3ncc(F)c(-c4cc(F)c5nc(C)n(C(C)C)c5c4)n3)nc2)CC1 [ABEMACICLIB]		4.01 µM	3.45 µM	4.63 µM					TGI (MDA-MB-231 [20]): Active
Cc1ccccc1Nc1nc(Nc2ccc(N3CCN(C)CC3)cn2)ncc1Cl		5.21 µM	7.47 µM	8.08 µM	> 10 µM	0.152 µM	5.98 µM	0.0157 to 0.016 µM	Ratio IC50 (Homo sapiens): 10
COC[C@@H](C)N[C@H]1CC[C@H](Nc2cc(-c3cccc(NCC4(C#N)CCOCC4)n3)c(Cl)cn2)CC1		43.4 µM	< 0.16 µM	< 0.16 µM	3.46 µM	0.002 µM	28.3 µM	> 10 µM	
CN1CCN(c2ccc(Nc3ncc(Cl)c(Nc4ccccc4)n3)nc2)CC1		51.8 µM	37.4 µM	> 100 µM	> 10 µM	9.85 µM	7.99 µM	0.113 µM	
Cc1ccccc1Nc1nc(NCCc2cccnc2)ncc1Cl		> 100 µM	> 100 µM	> 100 µM	> 10 µM	> 10 µM	> 100 µM	> 10 µM	
Cc1ccc(Nc2ncc(Cl)c(Nc3ccccc3C)n2)cc1		> 100 µM	> 100 µM	> 100 µM	> 10 µM	> 10 µM	> 100 µM	> 10 µM	
CN1CCN(c2ccc(Nc3ncc(Cl)c(Nc4ccccc4F)n3)nc2)CC1	inactive								inhibition (MCF7): Active; inhibition (MDA-MB-231 [19]): Active; inhibition (Jurkat): Active; inhibition [22]: inactive
Cc1ccccc1Nc1nc(Nc2cccnc2)ncc1Cl		56.5 µM	41.2 µM	38.6 µM	0.03 µM	3.43 µM	22.9 µM	6.65 µM	
Cc1ccccc1Nc1nc(Nc2ccncc2)ncc1Cl		98.5 µM	68.1 µM	> 100 µM	6.23 µM	> 10 µM	> 100 µM	> 10 µM	
CN1CCN(c2ccc(Nc3ncc(Cl)c(Nc4ccc(OC(F)(F)F)cc4)n3)nc2)CC1	inactive								
CN1CCN(c2ccc(Nc3ncc(Cl)c(NCCc4ccccc4F)n3)nc2)CC1		8.73 µM	> 100 µM	14.3 µM	> 10 µM	> 10 µM	9.67 µM	3.71 µM	
